In US8710065B2, “Tricyclic inhibitors of kinases” (AbbVie Inc., priority 2011, dated 2014):

biological target: T1, GST-tagged-Wee1 kinase (Homo sapiens, UniProt P30291); test: Wee1 time-resolved fluorescence equilibrium binding assay (displacement of Oregon Green-labeled ATP-competitive kinase probe); conditions: read-out: Wee-1 inhibition (Ki)
T1 construct: purchased Carnabio (Carna Biosciences) 05-177
How it was run: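 Ki values derive from competitive displacement, under equilibrium, of a fast-reversible ATP-site Oregon Green kinase probe from GST-tagged Wee1, detected by time-resolved fluorescence.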

T1 sequence (P30291 whole entry): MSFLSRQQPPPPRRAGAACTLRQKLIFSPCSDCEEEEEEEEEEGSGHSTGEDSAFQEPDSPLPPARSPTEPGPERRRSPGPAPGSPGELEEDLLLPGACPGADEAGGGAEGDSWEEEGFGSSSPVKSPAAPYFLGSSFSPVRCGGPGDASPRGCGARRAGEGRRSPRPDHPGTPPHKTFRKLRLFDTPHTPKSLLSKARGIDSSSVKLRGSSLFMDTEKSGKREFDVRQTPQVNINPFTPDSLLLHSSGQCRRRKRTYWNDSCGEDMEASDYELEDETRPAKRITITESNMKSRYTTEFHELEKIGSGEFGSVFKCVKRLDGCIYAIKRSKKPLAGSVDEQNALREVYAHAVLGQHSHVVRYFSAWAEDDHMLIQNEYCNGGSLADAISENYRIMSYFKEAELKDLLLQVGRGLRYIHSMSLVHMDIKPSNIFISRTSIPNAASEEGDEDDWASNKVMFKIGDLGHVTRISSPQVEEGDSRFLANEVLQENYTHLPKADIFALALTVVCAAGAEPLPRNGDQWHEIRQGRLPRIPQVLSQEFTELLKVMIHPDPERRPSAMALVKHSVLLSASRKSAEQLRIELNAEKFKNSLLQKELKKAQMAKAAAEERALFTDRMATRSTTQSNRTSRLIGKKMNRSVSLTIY

Row | SMILES | Ki [µM]
1 | C[C@@H]1CN(c2ccc(Nc3ncc4c(=O)n(-c5c(Cl)cccc5Cl)c5nccn5c4n3)cc2F)C[C@H](C)N1 [Example 128, 6-(2,6-dichlorophenyl)-2-({4-[(3R,5S)-3,5-dimethylpiperazin-1-yl]-3-fluorophenyl}amino)imidazo[1,2-a]pyrimido[5,4-e]pyrimidin-5(6H)-one] | < 0.01
2 | O=c1c2cnc(Nc3cc(F)c(N4CCNCC4)c(F)c3)nc2n2ccnc2n1-c1c(Cl)cccc1Cl [Example 129, 6-(2,6-dichlorophenyl)-2-{[3,5-difluoro-4-(piperazin-1-yl)phenyl]amino}imidazo[1,2-a]pyrimido[5,4-e]pyrimidin-5(6H)-one] | < 0.01
3 | CC1(C)CN(CC2CC2)Cc2cc(Nc3ncc4c(=O)n(-c5ccccc5Cl)c5nccn5c4n3)ccc21 [Example 130, 6-(2-chlorophenyl)-2-{[2-(cyclopropylmethyl)-4,4-dimethyl-1,2,3,4-tetrahydroisoquinolin-7-yl]amino}imidazo[1,2-a]pyrimido[5,4-e]pyrimidin-5(6H)-one] | < 0.01
4 | CC1(C)CN(Cc2cccnc2)Cc2cc(Nc3ncc4c(=O)n(-c5ccccc5Cl)c5nccn5c4n3)ccc21 [Example 131, 6-(2-chlorophenyl)-2-{[4,4-dimethyl-2-(pyridin-3-ylmethyl)-1,2,3,4-tetrahydroisoquinolin-7-yl]amino}imidazo[1,2-a]pyrimido[5,4-e]pyrimidin-5(6H)-one] | < 0.01
5 | CC1(C)CN(Cc2ccsc2)Cc2cc(Nc3ncc4c(=O)n(-c5ccccc5Cl)c5nccn5c4n3)ccc21 [Example 132, 6-(2-chlorophenyl)-2-{[4,4-dimethyl-2-(thiophen-3-ylmethyl)-1,2,3,4-tetrahydroisoquinolin-7-yl]amino}imidazo[1,2-a]pyrimido[5,4-e]pyrimidin-5(6H)-one] | < 0.01
6 | O=c1c2cnc(Nc3ccc(C4CCCN4)cc3)nc2n2ccnc2n1-c1c(Cl)cccc1Cl (stereo not drawn) [Example 134, 6-(2,6-dichlorophenyl)-2-{[4-(pyrrolidin-2-yl)phenyl]amino}imidazo[1,2-a]pyrimido[5,4-e]pyrimidin-5(6H)-one] | < 0.01
7 | O=c1c2cnc(Nc3ccc(N4CCC(O)CC4)cc3)nc2n2ccnc2n1-c1ccccc1Cl [Example 138, 6-(2-chlorophenyl)-2-{[4-(4-hydroxypiperidin-1-yl)phenyl]amino}imidazo[1,2-a]pyrimido[5,4-e]pyrimidin-5(6H)-one] | < 0.01
8 | CN(C)C1Cc2ccc(Nc3ncc4c(=O)n(-c5c(F)cccc5Cl)c5nccn5c4n3)cc2C1 (stereo not drawn) [Example 139, 6-(2-chloro-6-fluorophenyl)-2-{[2-(dimethylamino)-2,3-dihydro-1H-inden-5-yl]amino}imidazo[1,2-a]pyrimido[5,4-e]pyrimidin-5(6H)-one] | < 0.01
9 | CN1Cc2cc(Nc3ncc4c(=O)n(-c5c(F)cccc5Cl)c5nccn5c4n3)ccc2C2(CC2)C1 [Example 140, 6-(2-chloro-6-fluorophenyl)-2-[(2′-methyl-2′,3′-dihydro-1′H-spiro[cyclopropane-1,4′-isoquinolin]-7′-yl)amino]imidazo[1,2-a]pyrimido[5,4-e]pyrimidin-5(6H)-one] | < 0.01
10 | O=C1CN(c2ccc(Nc3ncc4c(=O)n(-c5c(Cl)cccc5Cl)c5nccn5c4n3)cc2)CCN1 [Example 143, 6-(2,6-dichlorophenyl)-2-{[4-(3-oxopiperazin-1-yl)phenyl]amino}imidazo[1,2-a]pyrimido[5,4-e]pyrimidin-5(6H)-one] | < 0.01
11 | CC1(C)CN(CCCC(F)(F)F)Cc2cc(Nc3ncc4c(=O)n(-c5ccccc5Cl)c5nccn5c4n3)ccc21 [Example 145, 6-(2-chlorophenyl)-2-{[4,4-dimethyl-2-(4,4,4-trifluorobutyl)-1,2,3,4-tetrahydroisoquinolin-7-yl]amino}imidazo[1,2-a]pyrimido[5,4-e]pyrimidin-5(6H)-one] | < 0.01
12 | CN1Cc2cc(Nc3ncc4c(=O)n(-c5ccccc5Cl)c5nccn5c4n3)ccc2C1(C)C [Example 146, 6-(2-chlorophenyl)-2-[(1,1,2-trimethyl-2,3-dihydro-1H-isoindol-5-yl)amino]imidazo[1,2-a]pyrimido[5,4-e]pyrimidin-5(6H)-one] | < 0.01
13 | CN1C(C)(C)c2ccc(Nc3ncc4c(=O)n(-c5ccccc5Cl)c5nccn5c4n3)cc2C1(C)C [Example 147, 6-(2-chlorophenyl)-2-[(1,1,2,3,3-pentamethyl-2,3-dihydro-1H-isoindol-5-yl)amino]imidazo[1,2-a]pyrimido[5,4-e]pyrimidin-5(6H)-one] | < 0.01
14 | COc1cc(Nc2ncc3c(=O)n(-c4c(Cl)cccc4Cl)c4nccn4c3n2)ccc1N1CCN(C)CC1 [Example 148, 6-(2,6-dichlorophenyl)-2-{[3-methoxy-4-(4-methylpiperazin-1-yl)phenyl]amino}imidazo[1,2-a]pyrimido[5,4-e]pyrimidin-5(6H)-one] | < 0.01
15 | CN1CCc2cc(Nc3ncc4c(=O)n(-c5c(Cl)cccc5Cl)c5nccn5c4n3)ccc2C1(C)C [Example 150, 6-(2,6-dichlorophenyl)-2-[(1,1,2-trimethyl-1,2,3,4-tetrahydroisoquinolin-6-yl)amino]imidazo[1,2-a]pyrimido[5,4-e]pyrimidin-5(6H)-one] | < 0.01
16 | CN1Cc2cc(Nc3ncc4c(=O)n(-c5c(Cl)cccc5Cl)c5nccn5c4n3)ccc2C(C)(C)C1 [Example 152, 6-(2,6-dichlorophenyl)-2-[(2,4,4-trimethyl-1,2,3,4-tetrahydroisoquinolin-7-yl)amino]imidazo[1,2-a]pyrimido[5,4-e]pyrimidin-5(6H)-one] | < 0.01
17 | O=c1c2cnc(Nc3ccc(N4CCC(F)(F)CC4)cc3)nc2n2ccnc2n1-c1c(Cl)cccc1Cl [Example 153, 6-(2,6-dichlorophenyl)-2-{[4-(4,4-difluoropiperidin-1-yl)phenyl]amino}imidazo[1,2-a]pyrimido[5,4-e]pyrimidin-5(6H)-one] | < 0.01
18 | O=c1c2cnc(Nc3ccc(N4CCCC(F)(F)C4)cc3)nc2n2ccnc2n1-c1c(Cl)cccc1Cl [Example 154, 6-(2,6-dichlorophenyl)-2-{[4-(3,3-difluoropiperidin-1-yl)phenyl]amino}imidazo[1,2-a]pyrimido[5,4-e]pyrimidin-5(6H)-one] | < 0.01
19 | CC(C)N1CCN(c2ccc(Nc3ncc4c(=O)n(-c5c(Cl)cccc5Cl)c5nccn5c4n3)cc2F)CC1 [Example 155, 6-(2,6-dichlorophenyl)-2-({3-fluoro-4-[4-(propan-2-yl)piperazin-1-yl]phenyl}amino)imidazo[1,2-a]pyrimido[5,4-e]pyrimidin-5(6H)-one] | < 0.01
20 | O=c1c2cnc(Nc3ccc(N4CCNCC4)c(C(F)(F)F)c3)nc2n2ccnc2n1-c1c(Cl)cccc1Cl [Example 156, 6-(2,6-dichlorophenyl)-2-{[4-(piperazin-1-yl)-3-(trifluoromethyl)phenyl]amino}imidazo[1,2-a]pyrimido[5,4-e]pyrimidin-5(6H)-one] | < 0.01

Next, values leading:

Row | Ki [µM] | SMILES
21 | < 0.01 | CN1CCN(Cc2ccc(Nc3ncc4c(=O)n(-c5c(Cl)cccc5Cl)c5nccn5c4n3)cc2)CC1 [Example 127, 6-(2,6-dichlorophenyl)-2-({4-[(4-methylpiperazin-1-yl)methyl]phenyl}amino)imidazo[1,2-a]pyrimido[5,4-e]pyrimidin-5(6H)-one]
22 | < 0.01 | CN1CCc2cc(Nc3ncc4c(=O)n(-c5ccccc5Cl)c5nccn5c4n3)ccc2C1(C)C [Example 133, 6-(2-chlorophenyl)-2-[(1,1,2-trimethyl-1,2,3,4-tetrahydroisoquinolin-6-yl)amino]imidazo[1,2-a]pyrimido[5,4-e]pyrimidin-5(6H)-one]
23 | < 0.01 | O=c1c2cnc(Nc3ccc(C4CCCCN4)cc3)nc2n2ccnc2n1-c1c(Cl)cccc1Cl (stereo not drawn) [Example 135, 6-(2,6-dichlorophenyl)-2-{[4-(piperidin-2-yl)phenyl]amino}imidazo[1,2-a]pyrimido[5,4-e]pyrimidin-5(6H)-one]
24 | < 0.01 | CN1CCN(c2ccc(Nc3ncc4c(=O)n(-c5c(Cl)cccc5Cl)c5nccn5c4n3)cc2Cl)CC1 [Example 136, 2-{[3-chloro-4-(4-methylpiperazin-1-yl)phenyl]amino}-6-(2,6-dichlorophenyl)imidazo[1,2-a]pyrimido[5,4-e]pyrimidin-5(6H)-one]
25 | < 0.01 | COc1cc(Nc2ncc3c(=O)n(-c4c(Cl)cccc4Cl)c4nccn4c3n2)ccc1N1CCN(C(C)C)CC1 [Example 137, 6-(2,6-dichlorophenyl)-2-({3-methoxy-4-[4-(propan-2-yl)piperazin-1-yl]phenyl}amino)imidazo[1,2-a]pyrimido[5,4-e]pyrimidin-5(6H)-one]
26 | < 0.01 | Cc1cc(Nc2ncc3c(=O)n(-c4c(F)cccc4Cl)c4nccn4c3n2)ccc1N1CCCNCC1 [Example 141, 6-(2-chloro-6-fluorophenyl)-2-{[4-(1,4-diazepan-1-yl)-3-methylphenyl]amino}imidazo[1,2-a]pyrimido[5,4-e]pyrimidin-5(6H)-one]
27 | 0.01 to 0.1 | CC(C)n1c(=O)c2cnc(Nc3ccc4c(c3)CN(C)CC43CC3)nc2n2ccnc12 [Example 142, 2-[(2′-methyl-2′,3′-dihydro-1′H-spiro[cyclopropane-1,4′-isoquinolin]-7′-yl)amino]-6-(propan-2-yl)imidazo[1,2-a]pyrimido[5,4-e]pyrimidin-5(6H)-one]
28 | < 0.01 | CC(C)N1Cc2cc(Nc3ncc4c(=O)n(-c5ccccc5Cl)c5nccn5c4n3)ccc2C(C)(C)C1 [Example 144, 6-(2-chlorophenyl)-2-{[4,4-dimethyl-2-(propan-2-yl)-1,2,3,4-tetrahydroisoquinolin-7-yl]amino}imidazo[1,2-a]pyrimido[5,4-e]pyrimidin-5(6H)-one]
29 | < 0.01 | CCN(CC)CCCOc1ccc(Nc2ncc3c(=O)n(-c4c(Cl)cccc4Cl)c4nccn4c3n2)cc1F [Example 149, 6-(2,6-dichlorophenyl)-2-({4-[3-(diethylamino)propoxy]-3-fluorophenyl}amino)imidazo[1,2-a]pyrimido[5,4-e]pyrimidin-5(6H)-one]
30 | < 0.01 | O=c1c2cnc(Nc3ccc(N4C[C@@H]5C[C@H]4CN5)cc3)nc2n2ccnc2n1-c1c(Cl)cccc1Cl [Example 151, 2-({4-[(1S,45)-2,5-diazabicyclo[2.2.1]hept-2-yl]phenyl}amino)-6-(2,6-dichlorophenyl)imidazo[1,2-a]pyrimido[5,4-e]pyrimidin-5(6H)-one]
